Data: patent publication US20030226169A1, “DNA sequences encoding antifungal proteins” (priority 1995, published 2003)
Converted amounts (≈) assume the structure as drawn. Non-standard residues stand in square brackets, D forms with d. Residues, ends and D or L forms follow the SMILES beside them. Abu = CC[C@H](N)C(=O)O

Tested on: Fusarium culmorum (IMI 180420)
Assay: Antifungal growth inhibition microplate assay (photospectrometry)
Type: cell-based
Settings: for F CULMORUM IC50: Table 7 / FIG. 8: Rs-AFP1-based 12-mer split peptides; for F CULMORUM MIC: Table 7: Rs-AFP1-based 12-mer split peptides; for IC50 SMF + pH5 / IC50 SMF + pH7 / IC50 1/2 PDB: duplo; for IC50 ½ PDB: peptides single experiment; for IC50 1/2 PDB: 2 × 10^4 spores/ml; for antifungal activity compared with peptide G1 (and G2), in words: 19-mer peptides, Example 7
Experimental: The following fungal strains were used: Alternaria brassicicola (MUCL 20297), Ascophyta pisi (MUCL 30164), Botrytis cinerea (MUCL 30158), Fusarium culmorum (IMI 180420) and Verticillium dahliae (MUCL 19210).
Fungi were grown on six cereal agar plates at room temperature and under white fluorescent light except for F culmorum and V dahliae which were grown in the dark. The duration of the spore harvest varied between 10 and 25 days depending on the strain. Spores were collected as follows. Five to ten ml of sterile milli-Q water was poured into each dish and the surface of the agar was rubbed with a sterile spatula to obtain a suspension containing mycelium and spores. This suspension was filtered through a sterile glasswool-plugged funnel and the filtrate containing the spores was collected in a sterile polypropylene centrifuge tube. The A brassicicola spores were suspended in sterile 0.1 Tween 20 (Merk, 822184) due to their hydrophobic nature. The spore suspensions were then washed twice by centrifugation at 2,400×g for 15 minutes and resuspended in a small volume of steril milli-Q water. The spore density was determined in a counting chamber and then adjusted to 4×10^7 spores per ml. Aliquots of the spore suspension were transferred to sterile microtubes and an equal volume of sterile 50% glycerol (Merck, 4091) was added to each tube so that a final spore suspension of 2×10^7 spores per ml in 25% glycerol was obtained. After careful mixing of the stock, the spore suspension was transferred in 100 μl aliquots to sterile microtubes and stored at −80° C.
Antifungal activity was measured by photospectrometry as described by Broekaert et al, (1990, FEMS Microbiol Lett, 69:55-60). Tests were performed by adding 20 μl of test solution and 80 μl of a fungal spore suspension (2×10^4 spores/ml) per well in a sterile flat-bottom 96-well microtiterplate. The spore suspension was prepared by diluting the stock spore suspension ([…] in 25% glycerol) 1:1000 in half-strength potato dextrose broth. A positive growth control consisting of eight wells containing 20 μl of sterile milli-Q water and 80 μl of the fungal spore suspension was included in each test. The microtiterplates were incubated (with the lid on) in an aerated place at room temperature and under conditions of darkness for all test organisms.
After 30 minutes of incubation (when the spores are settled on the well bottom) the optical density was measured in a microplate reader (Bio Rad 3550-UV) at 595 nm. Incubation of the microtiterplates continued until the optical density of the control microculture was between 0.250 and 0.500, which took approximately 72 hours (96 hours for V dahliae). Percentage of growth inhibition (% GI) was estimated as 100 times the ratio of the corrected absorbance of the control microculture minus the corrected absorbance of the test microculture over the corrected absorbance of the control microculture at 595 nm. The corrected absorbance values equal the absorbance at 595 nm of the culture measured after 72 or 96 hours minus the absorbance at 595 nm measured after 30 minutes.
% GI=[(Acontrol−Atest/Acontrol]×100
where Acontrol=(A72/96h−A30min)control
The IC50 value is defined as the concentration that gives a 50% growth inhibition after 72 or 96 hours of incubation. The minimum inhibitory concentration (MIC) corresponds to the minimum concentration that gives 100% growth inhibition after 72 or 96 hours incubation.

[1] = Table 4 / FIG. 6: Rs-AFP2-based 12-mer split peptides, ½ PDB, the source numbers peptides by N-terminal amino acid
[2] = Table 4: Rs-AFP2-based 12-mer split peptides, ½ PDB, triplicate
[3] = ½ PDB, the source numbers peptides by N-terminal amino acid
[4] = Table 14: 18-, 19-, 20-mer peptides with C-terminal Phe49
[5] = Table 13: linear β2-β3 loop MPS peptides
[6] = Table 10: medium 1/16 PDB, one test, fungus not named in Example 7
[7] = Table 10: medium ½ PDB, one test, fungus not named in Example 7
[8] = Table 13: linear β2-β3 loop MPS peptides, SMF+ (1 mM Ca2+, 50 mM K+) pH5
[9] = Table 13: linear β2-β3 loop MPS peptides, SMF+ (1 mM Ca2+, 50 mM K+) pH7

Row | Compound | IC50 [1] [µg/mL] | MIC [2] [µg/mL] | F CULMORUM IC50 [3] [µg/mL] | F CULMORUM MIC (½ PDB) [µg/mL] | IC50 1/2 PDB [5] | IC50 SMF + pH5 [8] [μg/ml] | IC50 SMF + pH7 [9] [μg/ml] | also measured
1 | 110 (CKNQCIRLEKAR; listed as Raphanus sativus) [compound 110] | 148 | 200 | 223 | 400 | – | – | – | –
2 | 113 (QCIRLEKARHGS; listed as Raphanus sativus) [compound 113] | 127 | 200 | 362 | 400 | – | – | – | –
3 | 116 (RLEKARHGSCNY; listed as Raphanus sativus) [compound 116] | 202 | 400 | 359 | 400 | – | – | – | –
4 | CC[C@H](NC(=O)[C@H](CO)NC(=O)CNC(=O)[C@H](Cc1c[nH]cn1)NC(=O)[C@H](CCCNC(=N)N)NC(=O)[C@H](C)NC(C)=O)C(=O)N[C@@H](CC(N)=O)C(=O)N[C@@H](Cc1ccc(O)cc1)C(=O)N[C@H](C(=O)N[C@@H](Cc1ccccc1)C(=O)N1CCC[C@H]1C(=O)N[C@@H](C)C(=O)N[C@@H](Cc1c[nH]cn1)C(=O)N[C@@H](CCCCN)C(=O)N[C@@H](CC)C(=O)N[C@H](C(=O)N[C@@H](CC)C(=O)N[C@@H](Cc1ccc(O)cc1)C(=O)N[C@@H](Cc1ccccc1)C(N)=O)[C@@H](C)CC)C(C)C [Peptide 001, ARHGSBNYVFPAHKBIBYF] (Ac-ARHGS[Abu]NYVFPAHK[Abu]I[Abu]YF-NH2) | – | – | – | – | – | – | – | IC50 SMF + pH5 [4]: 102 ± 2 μg/ml; IC50 SMF + pH7 [4]: 159 ± 5 μg/ml; IC50 ½ PDB [4]: 5.6 µg/mL (≈ 2.54 µM)
5 | CC[C@H](C)[C@H](NC(=O)[C@H](CS)NC(=O)[C@H](CCCCN)NC(=O)[C@H](Cc1c[nH]cn1)NC(=O)[C@H](C)NC(=O)[C@@H]1CCCN1C(=O)[C@H](Cc1ccccc1)NC(=O)[C@@H](NC(=O)[C@H](Cc1ccc(O)cc1)NC(=O)[C@H](CC(N)=O)NC(=O)[C@H](CS)NC(=O)[C@H](CO)NC(=O)CNC(=O)[C@H](Cc1c[nH]cn1)NC(=O)[C@H](CCCNC(=N)N)NC(=O)[C@H](C)NC(C)=O)C(C)C)C(=O)N[C@@H](CS)C(=O)N[C@@H](Cc1ccc(O)cc1)C(=O)N[C@@H](Cc1ccccc1)C(N)=O [Peptide G1, ARHGSCNYVFPAHKCICYF] (Ac-ARHGSCNYVFPAHKCICYF-NH2) | – | – | – | – | ARHGSCNYVFPAHKCICYF 17.6 ± 1.1 μg/ml | – | – | –
6 | CC[C@H](NC(=O)[C@H](CO)NC(=O)CNC(=O)[C@H](Cc1c[nH]cn1)NC(=O)[C@H](CCCNC(=N)N)NC(=O)[C@H](C)NC(C)=O)C(=O)N[C@@H](CC(N)=O)C(=O)N[C@@H](Cc1ccc(O)cc1)C(=O)N[C@H](C(=O)N[C@@H](Cc1ccccc1)C(=O)N1CCC[C@H]1C(=O)N[C@@H](C)C(=O)N[C@@H](Cc1c[nH]cn1)C(=O)N[C@@H](CCCCN)C(=O)N[C@@H](CC)C(=O)N[C@H](C(=O)N[C@@H](CC)C(=O)N[C@@H](Cc1ccc(O)cc1)C(=O)N[C@@H](Cc1ccccc1)C(N)=O)[C@@H](C)CC)C(C)C [Peptide G2, ARHGSBNYVFPAHKBIBYF] (Ac-ARHGS[Abu]NYVFPAHK[Abu]I[Abu]YF-NH2) | – | – | – | – | 16.0 ± 1.2 µg/mL (≈ 7.26 µM) | 50.0 ± 6.0 | >400 | antifungal activity compared with peptide G1 (and G2), in words: does not affect antifungal activity; IC50 [6]: 10 µg/mL (≈ 4.54 µM); MIC [6]: 12.5 µg/mL (≈ 5.67 µM); IC50 [7]: 17 µg/mL (≈ 7.71 µM); MIC [7]: 25 µg/mL (≈ 11.3 µM)
7 | CC[C@H](NC(=O)[C@H](C)NC(=O)CNC(=O)[C@H](Cc1c[nH]cn1)NC(=O)[C@H](CO)NC(=O)[C@H](C)NC(C)=O)C(=O)N[C@@H](Cc1c[nH]cn1)C(=O)N[C@@H](CCCCN)C(=O)N[C@@H](CCCNC(=N)N)C(=O)N[C@@H](CCC(=O)O)C(=O)N[C@@H](CC(N)=O)C(=O)N[C@@H](Cc1c[nH]cn1)C(=O)N[C@@H](Cc1c[nH]c2ccccc12)C(=O)N[C@@H](CCCCN)C(=O)N[C@@H](CC)C(=O)N[C@@H](Cc1ccccc1)C(=O)N[C@@H](CC)C(=O)N[C@@H](Cc1ccc(O)cc1)C(=O)N[C@@H](Cc1ccccc1)C(N)=O [Peptide J1, ASHGABHKRENHWKBFBYF] (Ac-ASHGA[Abu]HKRENHWK[Abu]F[Abu]YF-NH2) | – | – | – | – | 9.1 ± 0.6 µg/mL (≈ 3.94 µM) | 47 ± 33 | 173.4 ± 0.2 | antifungal activity compared with peptide G1 (and G2), in words: even more active; IC50 [6]: 5 µg/mL (≈ 2.16 µM); MIC [6]: 6.25 µg/mL (≈ 2.7 µM); IC50 [7]: 9 µg/mL (≈ 3.89 µM); MIC [7]: 12.5 µg/mL (≈ 5.41 µM); activity compared to Rs-AFP counterpart G2 (½ PDB): almost two-fold higher activity
8 | CC[C@H](NC(=O)[C@H](CO)NC(=O)CNC(=O)[C@H](Cc1c[nH]cn1)NC(=O)[C@H](CCCNC(=N)N)NC(=O)[C@H](C)NC(=O)[C@H](CCCCN)NC(C)=O)C(=O)N[C@@H](CC(N)=O)C(=O)N[C@@H](Cc1ccc(O)cc1)C(=O)N[C@H](C(=O)N[C@@H](Cc1ccccc1)C(=O)N1CCC[C@H]1C(=O)N[C@@H](C)C(=O)N[C@@H](Cc1c[nH]cn1)C(=O)N[C@@H](CCCCN)C(=O)N[C@@H](CC)C(=O)N[C@H](C(=O)N[C@@H](CC)C(=O)N[C@@H](Cc1ccc(O)cc1)C(=O)N[C@@H](Cc1ccccc1)C(N)=O)[C@@H](C)CC)C(C)C [Peptide N1, KARHGSBNYVFPAHKBIBYF] (Ac-KARHGS[Abu]NYVFPAHK[Abu]I[Abu]YF-NH2) | – | – | – | – | 14.0 ± 6.2 µg/mL (≈ 6 µM) | 27.0 ± 7.7 | 142.6 ± 13.6 | –
9 | CC[C@H](NC(=O)[C@H](C)NC(=O)CNC(=O)[C@H](Cc1c[nH]cn1)NC(=O)[C@H](C)NC(=O)[C@H](C)NC(C)=O)C(=O)N[C@@H](Cc1c[nH]cn1)C(=O)N[C@H](C(=O)N[C@@H](CCCNC(=N)N)C(=O)N[C@@H](CC(N)=O)C(=O)NCC(=O)N[C@@H](CCCCN)C(=O)N[C@@H](Cc1c[nH]cn1)C(=O)N[C@@H](CCSC)C(=O)N[C@@H](CC)C(=O)N[C@@H](Cc1ccccc1)C(=O)N[C@@H](CC)C(=O)N[C@@H](Cc1ccc(O)cc1)C(=O)N[C@@H](Cc1ccccc1)C(N)=O)C(C)C [Peptide N5, AAHGABHVRNGKHMBFBYF] (Ac-AAHGA[Abu]HVRNGKHM[Abu]F[Abu]YF-NH2) | – | – | – | – | 8.0 ± 0.4 µg/mL (≈ 3.74 µM) | 20.9 ± 1.8 | 24.2 ± 0.2 | activity compared to Rs-AFP counterpart G2 (½ PDB): almost two-fold higher activity
10 | CC[C@H](NC(=O)[C@H](CO)NC(=O)CNC(=O)[C@H](Cc1c[nH]cn1)NC(=O)[C@H](CCCNC(=N)N)NC(C)=O)C(=O)N[C@@H](CC(N)=O)C(=O)N[C@@H](Cc1ccc(O)cc1)C(=O)N[C@H](C(=O)N[C@@H](Cc1ccccc1)C(=O)N1CCC[C@H]1C(=O)N[C@@H](C)C(=O)N[C@@H](Cc1c[nH]cn1)C(=O)N[C@@H](CCCCN)C(=O)N[C@@H](CC)C(=O)N[C@H](C(=O)N[C@@H](CC)C(=O)N[C@@H](Cc1ccc(O)cc1)C(=O)N[C@@H](Cc1ccccc1)C(N)=O)[C@@H](C)CC)C(C)C [Peptide P02, RHGSBNYVFPAHKBIBYF] (Ac-RHGS[Abu]NYVFPAHK[Abu]I[Abu]YF-NH2) | – | – | – | – | – | – | – | IC50 SMF + pH5 [4]: 69 ± 34 μg/ml; IC50 SMF + pH7 [4]: 133 ± 6 μg/ml; IC50 ½ PDB [4]: 8.9 µg/mL (≈ 4.17 µM)
